# Measurements: US20230026856A1, “HETEROCYCLIC COMPOUNDS AND METHODS OF USE THEREOF” (SPARCBIO LLC, priority 2020, published 2023)
# Columns and labels:
# [1] = test system: MIA PaCa-2; assay: Cell proliferation assay panel (Cell Titer-Glo), MIA PaCa-2; type: cell-based; details: Homo sapiens, MIA PaCa-2, 72 h
# Method: (§1) Potency of compounds was determined in cell proliferation assays in a panel of cancer cell lines. Cells were seeded in 384-well plates (Corning, Cat. #3765) at specified densities in 40 μL of culture medium and incubated overnight at 37° C. in a 5% CO2 incubator (culture conditions). With a robotic dispenser, serially diluted test compounds were added in a volume of 20 nL DMSO to wells in the culture plate to achieve the final desired concentrations of test compounds, and the cells were further incubated in culture conditions for 72 hr. The assay was terminated by addition of 25 μL of Cell Titer-Glo reagent (Promega, Madison, Wis.) to each well. Contents were mixed, the plate was incubated for 10 min at room temperature and luminescence was measured. The IC50 value of each test compound was calculated with XLFit curve fitting software. Results are shown in Table 4. ‘+++’ indicates IC50 values ≤300 nM, ‘++’ indicates IC50 values between 300 nM-3 μM, and ‘+’ indicates IC50 values ≥3 μM.
# [2] = test system: KYSE-410; assay: Cell proliferation assay panel (Cell Titer-Glo), KYSE-410; type: cell-based; details: Homo sapiens, 72 hr
# Method: as §1
# [3] = test system: NCI-H2030; assay: Cell proliferation assay panel (Cell Titer-Glo), NCI-H2030; type: cell-based; details: Homo sapiens, 72 hr
# Method: as §1
# [4] = test system: NCI-H1373; assay: Cell proliferation assay panel (Cell Titer-Glo), NCI-H1373; type: cell-based; details: Homo sapiens, 72 hr
# Method: as §1
# [5] = test system: Phosphorylation of ERK in NCI-H358 cells; assay: pERK assay, Method II (homogeneous TR-FRET, phospho-ERK Thr202/Tyr204); type: cell-based; details: Homo sapiens, 4 hr compound treatment
# Method: Method II. Phosphorylation of ERK was assessed by a homogeneous TR-FRET assay (Advanced phospho-ERK (Thr202/Tyr204) cellular kit; Cat. #64AERPEH, Cisbio). In brief, NCI-H358 cells were seeded in a 384-well culture plate at a density of 6000 cells in 40 μL medium/well and grown overnight at 37° C. and 5% CO2. Each test compound was dosed in duplicate in a 10-dose 3-fold titration starting at 10 μM or 2 μM. The culture plate was then incubated for 4 hr in the incubator. At the end of the compound treatment, the medium was removed, 35 μL of lysis buffer was added to each well, and the plate was agitated on a plate shaker for 40 mins at 4° C. An antibody cocktail of phospho-ERK1/2 Eu Cryptate antibody and Phospho-ERK1/2 d2 antibody was prepared by separately diluting the antibodies 20-fold with detection buffer and then mixing them together. 3.4 μL of antibody cocktail was dispensed to each well of an empty 384-well white ProxiPlus assay plate (Perkin Elmer), and the plate briefly centrifuged. 13.6 μL of cell lysate was then added to the antibody-containing wells, and the plate was briefly centrifuged and then incubated 2 hr at room temperature. The plate was read on a fluorescence plate reader (Envision2104, Perkin Elmer), with an excitation wavelength of 337 nm and emission wavelengths of 615 nm and 665 nm. The IC50 value of each test compound was calculated with XLFit curve fitting software. Results are shown in Table 6. ‘+++’ indicates IC50 values ≤300 nM, ‘++’ indicates IC50 values between 300 nM-3 μM, and ‘+’ indicates IC50 values ≥3 μM.
# [6] = test system: NCI-H358; assay: Cell proliferation assay panel (Cell Titer-Glo), NCI-H358; type: cell-based; details: Homo sapiens, 72 hr
# Method: as §1
# [7] = test system: NCI-H2122; assay: Cell proliferation assay panel (Cell Titer-Glo), NCI-H2122; type: cell-based; details: Homo sapiens, 72 hr
# Method: as §1
# [8] = test system: NCI-H358 cells; assay: 3D cell proliferation assay (Cell Titer-Glo 3D); type: cell-based; details: Homo sapiens, NCI-H358, 168 h, NCI-H358, 3D (ultra-low attachment); 7 days
# Method: NCI-H358 cells (ATCC® CRL-5807™) were plated in a 384-well Black/Clear Round Bottom Ultra-Low Attachment Microplate (Corning) in medium (RPMI-1640+10% FBS) at a density of 1000 cells in 50 μL per well, then incubated overnight at 37° C. and 5% CO2. Cells were treated with test compounds at 9 concentrations within a specified concentration range (e.g., 0.5 nM-10 μM) for generation of dose response curves. Test compounds were prepared by 1:3 serial dilution in DMSO from a specified starting concentration (e.g., 20 μM, 2 μM or 0.2 μM) and then added to wells of the assay plate in a total volume of 150 nL DMSO. The cells were further incubated at 37° C. and 5% CO2 for 7 days. Cell viability was assessed by adding 40 μL of Cell Titer-Glo® 3D reagent (Cat. No.: G9683, Promega) to each well and reading luminescence after mixing and incubation of the samples. The IC50 value of each test compound was calculated with XLFit curve fitting software.
# [9] = test system: SW1573; assay: Cell proliferation assay panel (Cell Titer-Glo), SW1573; type: cell-based; details: Homo sapiens, 72 hr
# Method: as §1
# [10] = target: T1, KRAS G12C protein (Homo sapiens, UniProt P01116, G12C); assay: Nucleotide exchange assay, Method III (TR-FRET, association of KRAS G12C with Raf-RBD, SOS1-mediated exchange); type: biochemical; details: overnight (18 hr) incubation with GDP-bound KRAS G12C
# In short: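 Compounds in 11-point 3-fold dilutions were preincubated 18 h at 23 °C with GDP-bound His-tagged KRAS G12C (25 nM in the 2× mix). SOS1/GTP was then added for 1 h at 23 °C, followed by FLAG-Raf-RBD with Tb-anti-FLAG/D2-anti-His for 2 h at room temperature. IC50 values came from non-linear regression of the TR-FRET signal.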
# Target sequence in this assay (P01116 1-188 isoform P01116-2 G12C): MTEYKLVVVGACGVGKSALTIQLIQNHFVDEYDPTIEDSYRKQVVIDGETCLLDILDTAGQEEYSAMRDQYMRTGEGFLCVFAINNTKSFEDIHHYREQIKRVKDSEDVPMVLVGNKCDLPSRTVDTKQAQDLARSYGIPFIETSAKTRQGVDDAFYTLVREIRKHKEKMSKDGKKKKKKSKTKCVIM
# [11] = test system: A549; assay: Cell proliferation assay panel (Cell Titer-Glo), A549; type: cell-based; details: Homo sapiens, 72 hr
# Method: as §1
# [12] = target: T1, KRAS G12C protein; assay: Nucleotide exchange assay, Method I (BODIPY-GDP fluorescence, SOS1-mediated exchange of GDP for GTP); type: biochemical; details: 30 minutes incubation with KRAS G12C/BODIPY-GDP
# Method: Method I. A biochemical assay to assess activity of test compounds in inhibiting SOS1-mediated exchange of GDP for GTP on the KRAS G12C protein was performed at Reaction Biology Corporation (Malvern, Pa., USA). In this assay, exchange of BODIPY-GDP to GTP results in the decrease in BODIPY-GDP fluorescence. Briefly, recombinant KRAS G12C protein (aa 2-169, prepared by Reaction Biology) was labelled with 5× excess of BODIPY-GDP. Excess BODIPY-GDP was separated from loaded protein using a gravity desalting column. Compounds were incubated with 0.15 μM KRAS G12C/BODIPY-GDP for 30 minutes. A mixture of GTP (25 μM) and SOS1 (70 nM; aa 564-1049, prepared by Reaction Biology) was added to the reaction to initiate the nucleotide exchange reaction. Reaction progress was monitored in real time (Ex/Em=(483/530)) in CLARIOstar (BMG LabTech). After signal normalization, the data were fitted using the “one phase exponential decay” model in GraphPad Prism and rate constants obtained. Rate constants were converted to % activity values which were fit to a 4-parameter sigmoidal dose-response curve in Prism to derive IC50 values for inhibition of exchange activity by test compounds.
# Target sequence in this assay (P01116 2-169 isoform P01116-2 G12C): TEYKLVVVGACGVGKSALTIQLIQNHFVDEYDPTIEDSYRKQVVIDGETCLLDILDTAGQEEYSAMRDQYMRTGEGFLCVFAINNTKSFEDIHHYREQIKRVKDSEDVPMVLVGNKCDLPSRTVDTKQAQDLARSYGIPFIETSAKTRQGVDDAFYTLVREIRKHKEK
SMILES,IC50 [1] [nM],IC50 [2] [nM],IC50 [3] [nM],IC50 [4] [nM],IC50 [5] [nM],IC50 [6] [nM],IC50 [7] [nM],IC50 [8] [nM],IC50 [9] [nM],IC50 [10] [nM],IC50 [11] [nM],IC50 [12] [µM]
"C=CC(=O)N1CCN(c2c(S(C)(=O)=O)c(=O)n(-c3c(C)ccnc3C(C)C)c3nc(-c4c(O)cccc4F)c(F)cc23)CC1 (single isomer, unassigned) [123 (Isomer A), 4-(4-acryloylpiperazin-1-yl)-6-fluoro-7-(2-fluoro-6-hydroxyphenyl)-1-(2-isopropyl-4-methylpyridin-3-yl)-3-(methylsulfonyl)-1,8-naphthyridin-2(1H)-one]",300 to 3000,≥ 3000,300 to 3000,≥ 3000,≤ 300,≤ 300,300 to 3000,≤ 100,≥ 3000,≤ 300,≥ 3000,
"C=CC(=O)N1CCC(n2c(=O)c(=O)n(-c3c(C)ccnc3C(C)C)c3nc(-c4c(O)cccc4F)c(F)cc32)CC1 (single isomer, unassigned) [1 (Isomer A), 1-(1-acryloylpiperidin-4-yl)-7-fluoro-6-(2-fluoro-6-hydroxyphenyl)-4-(2-isopropyl-4-methylpyridin-3-yl)-1,4-dihydropyrido[2,3-b]pyrazine-2,3-dione]",,,,,,,,,,300 to 3000,,0.3 to 3
"C=CC(=O)N1CCN(c2c(C(=O)NC)c(=O)n(-c3c(C)ccnc3C(C)C)c3nc(-c4c(O)cccc4F)c(F)cc23)CC1 (single isomer, unassigned) [84 (Isomer B), 4-(4-acryloylpiperazin-1-yl)-6-fluoro-7-(2-fluoro-6-hydroxyphenyl)-1-(2-isopropyl-4-methylpyridin-3-yl)-N-methyl-2-oxo-1,2-dihydro-1,8-naphthyridine-3-carboxamide]",300 to 3000,≥ 3000,≥ 3000,≥ 3000,,≤ 300,≥ 3000,,≥ 3000,,≥ 3000,
"C=CC(=O)N1CCN(c2c(S(C)(=O)=O)c(=O)n(-c3c(C)ccnc3C(C)C)c3nc(-c4c(C)ccc5[nH]ncc45)c(F)cc23)CC1 (single isomer, unassigned) [124 (Isomer A), 4-(4-acryloylpiperazin-1-yl)-6-fluoro-1-(2-isopropyl-4-methylpyridin-3-yl)-7-(5-methyl-1H-indazol-4-yl)-3-(methylsulfonyl)-1,8-naphthyridin-2(1H)-one]",300 to 3000,,,,300 to 3000,,,,,≤ 300,,
"C=CC(=O)N1CCC(n2c(=O)c(=O)n(-c3c(C)ccnc3C(C)C)c3nc(-c4c(O)cccc4F)c(F)cc32)CC1 (single isomer, unassigned) [1 (Isomer B), 1-(1-acryloylpiperidin-4-yl)-7-fluoro-6-(2-fluoro-6-hydroxyphenyl)-4-(2-isopropyl-4-methylpyridin-3-yl)-1,4-dihydropyrido[2,3-b]pyrazine-2,3-dione]",,,,,,,,,,,,≥ 3
"C=CC(=O)N1CCN(c2c(C(=O)NCC)c(=O)n(-c3c(C)ccnc3C(C)C)c3nc(-c4c(O)cccc4F)c(F)cc23)CC1 (single isomer, unassigned) [293 (Isomer A), 4-(4-acryloylpiperazin-1-yl)-N-ethyl-6-fluoro-7-(2-fluoro-6-hydroxyphenyl)-1-(2-isopropyl-4-methylpyridin-3-yl)-2-oxo-1,2-dihydro-1,8-naphthyridine-3-carboxamide]",300 to 3000,,,,300 to 3000,,,≤ 100,,≤ 300,,
"C=CC(=O)N1CCN(c2c(S(C)(=O)=O)c(=O)n(-c3c(C)ccnc3C(C)C)c3nc(-c4cccc5sc(N)nc45)c(F)cc23)CC1 (single isomer, unassigned) [250 (Isomer A), 4-(4-acryloylpiperazin-1-yl)-7-(2-aminobenzo[d]thiazol-4-yl)-6-fluoro-1-(2-isopropyl-4-methylpyridin-3-yl)-3-(methylsulfonyl)-1,8-naphthyridin-2(1H)-one]",300 to 3000,,,,≤ 300,,,,,≤ 300,,
